Laboratory results as given in US12077503B2, “Substituted cyclic amides and their use as herbicides” (FMC CORPORATION, priority 2015, dated 2024).
Read-outs that look alike come from different tables or passages of the source.

Assays:
Experiment in all cases: Test A preemergence
Type in all cases: in vivo
Kochia (Kochia scoparia) = settings: Bassia scoparia, pre-emergence, 240 h; for pest or weed control at 125 g/ha: 125 g ai/ha; for pest or weed control at 500 g/ha: 500 g ai/ha, visual injury rating about 10 d after treatment, 0 to 100 scale (0 no effect, 100 complete control)
Summary of the method: (§1)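 Preemergence directed soil spray on seeded pots, or postemergence application to plants 2–10 cm, one- to two-leaf. Solvent mixture non-phytotoxic, with surfactant. Scored ~10 d later, visually, 0–100 vs untreated.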

[1] = test system: barnyardgrass (Echinochloa crus-galli); settings: Echinochloa crus-galli, pre-emergence, 240 h; for pest or weed control at 125 g/ha: 125 g ai/ha; for pest or weed control at 500 g/ha: 500 g ai/ha, visual injury rating about 10 d after treatment, 0 to 100 scale (0 no effect, 100 complete control)
Summary of the method: as §1

[2] = test system: giant foxtail (Setaria faberii); settings: Setaria faberi, pre-emergence, 240 h; for pest or weed control at 125 g/ha: 125 g ai/ha; for pest or weed control at 500 g/ha: 500 g ai/ha, visual injury rating about 10 d after treatment, 0 to 100 scale (0 no effect, 100 complete control)
Summary of the method: as §1

[3] = test system: pigweed (Amaranthus retroflexus); settings: Amaranthus retroflexus, pre-emergence, 240 h; for pest or weed control at 125 g/ha: 125 g ai/ha; for pest or weed control at 500 g/ha: 500 g ai/ha, visual injury rating about 10 d after treatment, 0 to 100 scale (0 no effect, 100 complete control)
[4] = test system: ryegrass, Italian (Italian ryegrass, Lolium multiflorum); settings: Lolium multiflorum, pre-emergence, 240 h; for pest or weed control at 125 g/ha: 125 g ai/ha; for pest or weed control at 500 g/ha: 500 g ai/ha, visual injury rating about 10 d after treatment, 0 to 100 scale (0 no effect, 100 complete control)
Summary of the method: as §1

[5] = preemergence, 0 to 100 scale where 0 is no effect and 100 is complete control, read-out: Kochia plant response rating
[6] = preemergence, read-out: Kochia plant response rating
[7] = preemergence, 0 to 100 scale where 0 is no effect and 100 is complete control, read-out: Barnyardgrass plant response rating
[8] = preemergence, read-out: Barnyardgrass plant response rating
[9] = preemergence, 0 to 100 scale where 0 is no effect and 100 is complete control, read-out: Foxtail, Giant plant response rating
[10] = preemergence, read-out: Foxtail, Giant plant response rating
[11] = preemergence, 0 to 100 scale where 0 is no effect and 100 is complete control, read-out: Pigweed plant response rating
[12] = preemergence, read-out: Pigweed plant response rating
[13] = preemergence, read-out: Ryegrass, Italian plant response rating
[14] = Preemergence, visual injury rating after approximately 10 d, read-out: Kochia plant response rating (0 to 100 scale, 0 is no effect, 100 is complete control)
[15] = Preemergence, visual injury rating after approximately 10 d, read-out: Barnyardgrass plant response rating (0 to 100 scale, 0 is no effect, 100 is complete control)
[16] = Preemergence, visual injury rating after approximately 10 d, read-out: Foxtail, Giant plant response rating (0 to 100 scale, 0 is no effect, 100 is complete control)
[17] = Preemergence, visual injury rating after approximately 10 d, read-out: Pigweed plant response rating (0 to 100 scale, 0 is no effect, 100 is complete control)
[18] = Preemergence, visual injury rating after approximately 10 d, read-out: Ryegrass, Italian plant response rating (0 to 100 scale, 0 is no effect, 100 is complete control)

**Q.** What does the source list for `Cc1cc([C@H]2CN(C)C(=O)[C@@H]2C(=O)Nc2ccccc2F)ccc1Cl` [Compound 928]?
**A.** pest or weed control at 125 g/ha (Kochia (Kochia scoparia); [5]): 80%; pest or weed control at 500 g/ha (Kochia (Kochia scoparia); [6]): 80%; pest or weed control at 125 g/ha [1, 7]: 90%; pest or weed control at 500 g/ha [1, 8]: 90%; pest or weed control at 125 g/ha [2, 9]: 90%; pest or weed control at 500 g/ha [2, 10]: 90%; pest or weed control at 125 g/ha [3, 11]: 0%; pest or weed control at 500 g/ha [3, 12]: 20%; pest or weed control at 125 g/ha ([4]; preemergence, 0 to 100 scale where 0 is no effect and 100 is complete control, read-out: Ryegrass, Italian plant response rating): 40%; pest or weed control at 500 g/ha [4, 13]: 70%

**Q.** With `Cc1cc([C@H]2CN(C)C(=O)[C@@H]2C(=O)Nc2ccc(F)cc2F)ccc1Cl` [Compound 930] as the compound, how does the pest or weed control at 125 g/ha (Kochia (Kochia scoparia); [5]) read?
**A.** 70%

**Q.** What about the pest or weed control at 500 g/ha (Kochia (Kochia scoparia); [6]) of the same compound?
**A.** 90%

**Q.** And the pest or weed control at 125 g/ha [1, 7]?
**A.** 90%

**Q.** What about the pest or weed control at 500 g/ha [1, 8] of the same compound?
**A.** 90%

**Q.** And the pest or weed control at 125 g/ha [2, 9]?
**A.** 90%

**Q.** And the pest or weed control at 500 g/ha [2, 10]?
**A.** 90%

**Q.** And the pest or weed control at 125 g/ha [3, 11]?
**A.** 20%

**Q.** What about the pest or weed control at 500 g/ha [3, 12] of the same compound?
**A.** 30%

**Q.** What about the pest or weed control at 500 g/ha [4, 13] of the same compound?
**A.** 70%

**Q.** Which pest or weed control at 125 g/ha (Kochia (Kochia scoparia); [14]) does the source give for `Cc1ccc([C@H]2CN(C)C(=O)[C@@H]2C(=O)Nc2cccc(F)c2C)cc1Cl` [Compound 1014] here?
**A.** 20%

**Q.** And the pest or weed control at 500 g/ha (Kochia (Kochia scoparia); [6])?
**A.** 70%

**Q.** And the pest or weed control at 125 g/ha [1, 15]?
**A.** 90%

**Q.** And the pest or weed control at 500 g/ha [1, 8]?
**A.** 90%

**Q.** And the pest or weed control at 125 g/ha [2, 16]?
**A.** 90%

**Q.** And the pest or weed control at 500 g/ha [2, 10]?
**A.** 90%

**Q.** And the pest or weed control at 125 g/ha [3, 17]?
**A.** 30%

**Q.** And the pest or weed control at 500 g/ha [3, 12]?
**A.** 30%

**Q.** What about the pest or weed control at 125 g/ha [4, 18] of the same compound?
**A.** 0%

**Q.** And the pest or weed control at 500 g/ha [4, 13]?
**A.** 70%

**Q.** For `CC(=O)Oc1ccc(F)c(NC(=O)[C@H]2C(=O)N(C)C[C@@H]2c2cc(F)cc(F)c2)c1` [Compound 1019], which pest or weed control at 125 g/ha (Kochia (Kochia scoparia); [14]) is on record?
**A.** 0%

**Q.** And the pest or weed control at 500 g/ha (Kochia (Kochia scoparia); [6])?
**A.** 0%

**Q.** And the pest or weed control at 125 g/ha [1, 15]?
**A.** 0%

**Q.** And the pest or weed control at 500 g/ha [1, 8]?
**A.** 0%

**Q.** What about the pest or weed control at 125 g/ha [2, 16] of the same compound?
**A.** 0%

**Q.** And the pest or weed control at 500 g/ha [2, 10]?
**A.** 0%

**Q.** And the pest or weed control at 125 g/ha [3, 17]?
**A.** 0%

**Q.** What about the pest or weed control at 500 g/ha [3, 12] of the same compound?
**A.** 0%

**Q.** What about the pest or weed control at 125 g/ha [4, 18] of the same compound?
**A.** 0%

**Q.** And the pest or weed control at 500 g/ha [4, 13]?
**A.** 0%

**Q.** What does the source list for `O=C1NC[C@H](c2ccc3c(c2)OCO3)[C@H]1C(=O)Nc1ccc(F)cc1F` [Compound 1026]?
**A.** pest or weed control at 125 g/ha (Kochia (Kochia scoparia); [14]): 30%; pest or weed control at 500 g/ha (Kochia (Kochia scoparia); [6]): 80%; pest or weed control at 125 g/ha [1, 15]: 90%; pest or weed control at 500 g/ha [1, 8]: 90%; pest or weed control at 125 g/ha [2, 16]: 30%; pest or weed control at 500 g/ha [2, 10]: 90%; pest or weed control at 125 g/ha [3, 17]: 0%; pest or weed control at 500 g/ha [3, 12]: 0%; pest or weed control at 125 g/ha [4, 18]: 0%; pest or weed control at 500 g/ha [4, 13]: 0%

**Q.** How did the pest or weed control at 125 g/ha (Kochia (Kochia scoparia); [14]) turn out when `CC(C)COc1cccc([C@H]2CN(C)C(=O)[C@@H]2C(=O)Nc2ccc(F)cc2F)c1` [Compound 1030] was run?
**A.** 0%

**Q.** What about the pest or weed control at 500 g/ha (Kochia (Kochia scoparia); [6]) of the same compound?
**A.** 70%

**Q.** What about the pest or weed control at 125 g/ha [1, 15] of the same compound?
**A.** 70%

**Q.** What about the pest or weed control at 500 g/ha [1, 8] of the same compound?
**A.** 90%

**Q.** And the pest or weed control at 125 g/ha [2, 16]?
**A.** 90%

**Q.** And the pest or weed control at 500 g/ha [2, 10]?
**A.** 90%

**Q.** What about the pest or weed control at 125 g/ha [3, 17] of the same compound?
**A.** 0%

**Q.** What about the pest or weed control at 500 g/ha [3, 12] of the same compound?
**A.** 0%

**Q.** And the pest or weed control at 125 g/ha [4, 18]?
**A.** 70%

**Q.** And the pest or weed control at 500 g/ha [4, 13]?
**A.** 70%

**Q.** Which results are given for `O=C(Nc1ccccc1F)[C@H]1C(=O)N(C2CC2)CC[C@@H]1c1ccccc1` [Compound 1031]?
**A.** pest or weed control at 125 g/ha (Kochia (Kochia scoparia); [14]): 0%; pest or weed control at 500 g/ha (Kochia (Kochia scoparia); [6]): 0%; pest or weed control at 125 g/ha [1, 15]: 0%; pest or weed control at 500 g/ha [1, 8]: 0%; pest or weed control at 125 g/ha [2, 16]: 0%; pest or weed control at 500 g/ha [2, 10]: 0%; pest or weed control at 125 g/ha [3, 17]: 0%; pest or weed control at 500 g/ha [3, 12]: 0%; pest or weed control at 125 g/ha [4, 18]: 0%; pest or weed control at 500 g/ha [4, 13]: 0%
